Reference: patent US20200369618A1, “ASYMMETRIC DERIVATIVES OF P[…] THE DIN[…], PROCESS OF PREPARING AND USE THEREOF” (NEARMEDIC INTERNATIONAL LIMITED, priority 2017, published 2020)
In brackets after ≈: the same amount, converted by molar mass.

Assays:
[1] = system: influenza virus A/Puerto Rico/8/34 (H1N1); assay: organism not typed; type: cell-based; details: for SI (selectivity index, SI=CC50/IC50): CC50 in MDCK cells / IC50 against influenza A/Puerto Rico/8/34 (H1N1); for IC50: MDCK cells, influenza A/Puerto Rico/8/34 (H1N1), 48 hours, read-out: IC50 (compound concentration, at which 50% of virus titer is inhibited)
[2] = Assessment of cytotoxic properties (MTS assay, 48 h); type: cell-based; details: dog, MDCK ECAAC cells, read-out: CC50 (toxic dose of the drug, causing the death of 50% of the monolayer cells)
Protocol: Assessment of cytotoxic properties of asymmetric gossypol derivatives.
In 96-well flat-bottomed test plates, MDCK ECAAC (Sigma cat. ? 85011435) cells are placed at 18,000 cells per well in a volume of 100 μl of complete medium containing 10% fetal calf serum (FCS). Cells are cultured for 24 hours in CO2-incubator at 37° C. Then the liquid medium is removed from the wells of the test plates, leaving the immobilized living cells. Then wells are once washed with the 100 μl of serumless media. The medium is replaced with 100 μl per well of the dilutions of test compounds in support medium with 2% of serum, in 4 replicates. Each plate is prepared with 6 control wells containing 100 μl of fresh support medium without test compounds. The plates are incubated in CO2-incubator at 37° C. for 48 hours. Then liquid contents are removed from the wells, and 100 μl of support medium and 20 μl of MTS (Promega, cat. ? G3581) are added and mixed. The cells are incubated for 3 hours in CO2-incubator at 37° C., and the relative optical density of the solution in each well is measured with a plate spectrophotometer at 492 nm against its absorption at a reference wavelength of 620 nm. The cytotoxicity (CC50) is calculated using the standard method.

SMILES	SI (selectivity index, SI=CC50/IC50) [1]	IC50 [1] [µg/mL]	CC50 at 48 h [2] [µg/mL]
Cc1cc2c(C(C)C)c(O)c(O)cc2c(O)c1-c1c(C)cc2c(C(C)C)c(O)c(O)c(C=O)c2c1O (racemic) [I, 1,1′,6,6′,7,7′-hexahydroxy-5,5′-diisopropyl-3,3′-dimethyl-2,2′-binaphthalene-8-carbaldehyde]	29,36	0.2 (≈ 0.408 µM)	5.5 (≈ 11.2 µM)
Cc1cc2c(C(C)C)c(O)c(O)c(C=O)c2c(O)c1-c1c(C)cc2c(C(C)C)c(O)c(O)c(C=O)c2c1O [Gossypol, gossypol, reference compound]	3,24	1.2 (≈ 2.31 µM)	4 (≈ 7.71 µM)
CC1=C(C2=C(C)C(=O)c3c(c(C=O)c(O)c(O)c3C(C)C)C2=O)C(=O)c2cc(O)c(O)c(C(C)C)c2C1=O [II, 6,6′,7,7′-tetrahydroxy-5,5′-diisopropyl-3,3′-dimethyl-1,1′,4,4′-tetraoxo-1,1′,4,4′-tetrahydro-2,2′-binaphthalene-8-carbaldehyde]	4,75	0.8 (≈ 1.54 µM)	3.8 (≈ 7.33 µM)
